Measured values from patent US10604535B2, “Compounds, compositions and methods” (Denali Therapeutics Inc., priority 2016, dated 2020).

system: FADD-deficient Jurkat cells; assay: Cellular necroptosis assay (human TNFα-induced necrosis, CellTiter-Glo); format: cell-based; conditions: Homo sapiens, Jurkat, 48 h, TNFα 10 ng/mL, read-out: Cell IC50

Row | Structure (SMILES) | IC50
1 | CN1C(=O)[C@@H](NC(=O)c2cc(Cc3ccccc3)[nH]n2)[C@H]2C[C@H]2c2cccnc21 [Example 80A, 5-benzyl-N-((1aS,2S,8bR)-4-methyl-3-oxo-1,1a,2,3,4,8b-hexahydrocyclopropa[d]pyrido[2,3-b]azepin-2-yl)-1H-pyrazole-3-carboxamide] | 0.1 to 1000 nM
2 | CN1C(=O)[C@@H](NC(=O)c2ncc(Cc3ccccc3)s2)COc2cccnc21 [Example 86, (S)-5-benzyl-N-(5-methyl-4-oxo-2,3,4,5-tetrahydropyrido[3,2-b][1,4]oxazepin-3-yl)thiazole-2-carboxamide] | 0.1 to 1000 nM
3 | CN1C(=O)[C@@H](NC(=O)c2nn(Cc3ccc(F)cn3)cc2F)COc2ccccc21 [Example 214, (S)-4-fluoro-1-((5-fluoropyridin-2-yl)methyl)-N-(5-methyl-4-oxo-2,3,4,5-tetrahydrobenzo[b][1,4]oxazepin-3-yl)-1H-pyrazole-3-carboxamide] | 0.1 to 1000 nM
4 | CN1C(=O)[C@@H](NC(=O)c2cnc(C3(c4ccccc4)CC3)[nH]2)COc2ccccc21 [Example 88, (S)—N-(5-methyl-4-oxo-2,3,4,5-tetrahydrobenzo[b][1,4]oxazepin-3-yl)-2-(1-phenylcyclopropyl)-1H-imidazole-5-carboxamide] | 1000 to 10000 nM
5 | C[C@H]1Oc2cccnc2N(C)C(=O)[C@H]1NC(=O)c1noc(Cc2ccccc2)n1 [Example 222, 5-benzyl-N-((2R,3S)-2,5-dimethyl-4-oxo-2,3,4,5-tetrahydropyrido[3,2-b][1,4]oxazepin-3-yl)-1,2,4-oxadiazole-3-carboxamide] | 0.1 to 1000 nM
6 | CN1C(=O)[C@@H](NC(=O)c2nc3cccc(-c4ccccc4F)c3s2)COc2ccccc21 [Example 79, (S)-7-(2-fluorophenyl)-N-(5-methyl-4-oxo-2,3,4,5-tetrahydrobenzo[b][1,4]oxazepin-3-yl)benzo[d]thiazole-2-carboxamide] | 0.1 to 1000 nM
7 | COc1cccc(Cn2cc(F)c(C(=O)N[C@H]3COc4ccccc4N(C)C3=O)n2)n1 [Example 220, (S)-4-fluoro-1-((6-methoxypyridin-2-yl)methyl)-N-(5-methyl-4-oxo-2,3,4,5-tetrahydrobenzo[b][1,4]oxazepin-3-yl)-1H-pyrazole-3-carboxamide] | 0.1 to 1000 nM
8 | CN1C(=O)C(NC(=O)c2cc(Cc3ccccc3)on2)CC(F)c2ccccc21 (stereo not drawn) [Example 2, 5-benzyl-N-(5-fluoro-1-methyl-2-oxo-2,3,4,5-tetrahydro-1H-benzo[b]azepin-3-yl)isoxazole-3-carboxamide] | 0.1 to 1000 nM
9 | CN1C(=O)[C@H](NC(=O)c2nnc(Cc3ccccc3)[nH]2)C[C@H](F)c2ccccc21 (mixture of isomers) [Example 11B, 5-benzyl-N-((3S,5R)-5-fluoro-1-methyl-2-oxo-2,3,4,5-tetrahydro-1H-benzo[b]azepin-3-yl)-4H-1,2,4-triazole-3-carboxamide and 5-benzyl-N-((3R,5S)-5-fluoro-1-methyl-2-oxo-2,3,4,5-tetrahydro-1H-benzo[b]azepin-3-yl)-4H-1,2,4-triazole-3-carboxamide] | 0.1 to 1000 nM
10 | C[C@H]1Oc2cccnc2N(C)C(=O)[C@H]1NC(=O)c1nnc(Cc2ccccc2)s1 [Example 217, 5-benzyl-N-((2R,3S)-2,5-dimethyl-4-oxo-2,3,4,5-tetrahydropyrido[3,2-b][1,4]oxazepin-3-yl)-1,3,4-thiadiazole-2-carboxamide] | 0.1 to 1000 nM
11 | CN1C(=O)[C@H](NC(=O)c2nnc(Cc3ccccc3)[nH]2)C[C@@H](F)c2ccccc21 (mixture of isomers) [Example 12B, 5-benzyl-N-((3S,5S)-5-fluoro-1-methyl-2-oxo-2,3,4,5-tetrahydro-1H-benzo[b]azepin-3-yl)-4H-1,2,4-triazole-3-carboxamide and 5-benzyl-N-((3R,5R)-5-fluoro-1-methyl-2-oxo-2,3,4,5-tetrahydro-1H-benzo[b]azepin-3-yl)-4H-1,2,4-triazole-3-carboxamide] | 0.1 to 1000 nM
12 | [2H]C([2H])([2H])N1C(=O)[C@@H](NC(=O)c2nn(Cc3ccccc3)cc2F)COc2cccnc21 [Example 175, (S)-1-benzyl-4-fluoro-N-(5-trideuteriomethyl-4-oxo-2,3,4,5-tetrahydropyrido[3,2-b][1,4]oxazepin-3-yl)-1H-pyrazole-3-carboxamide] | 0.1 to 1000 nM
13 | CN1C(=O)[C@@H](NC(=O)c2nnc(Cc3ccccc3)o2)CCc2ccccc21 [Example 225, (S)-5-benzyl-N-(1-methyl-2-oxo-2,3,4,5-tetrahydro-1H-benzo[b]azepin-3-yl)-1,3,4-oxadiazole-2-carboxamide] | 0.1 to 1000 nM
14 | CN1C(=O)[C@@H](NC(=O)c2coc(C3(c4ccccc4)CC3)n2)COc2ccccc21 [Example 61, (S)—N-(5-methyl-4-oxo-2,3,4,5-tetrahydrobenzo[b][1,4]oxazepin-3-yl)-2-(1-phenylcyclopropyl)oxazole-4-carboxamide] | 0.1 to 1000 nM
15 | CN1C(=O)[C@@H](NC(=O)c2ncc(Cc3cccc(C#N)c3)s2)CCc2cccnc21 [Example 219, (S)-5-(3-cyanobenzyl)-N-(9-methyl-8-oxo-6,7,8,9-tetrahydro-5H-pyrido[2,3-b]azepin-7-yl)thiazole-2-carboxamide] | 0.1 to 1000 nM
16 | CN1C(=O)[C@@H](NC(=O)c2ncc(C3(c4ccccc4)CC3)[nH]2)COc2ccccc21 [Example 78, (S)—N-(5-methyl-4-oxo-2,3,4,5-tetrahydrobenzo[b][1,4]oxazepin-3-yl)-5-(1-phenylcyclopropyl)-1H-imidazole-2-carboxamide] | 0.1 to 1000 nM
17 | CN1C(=O)[C@@H](NC(=O)c2nn(Cc3ccccc3)cc2F)[C@H]2C[C@H]2c2cccnc21 [Example 82A, 1-benzyl-4-fluoro-N-((1aS,2S,8bR)-4-methyl-3-oxo-1,1a,2,3,4,8b-hexahydrocyclopropa[d]pyrido[2,3-b]azepin-2-yl)-1H-pyrazole-3-carboxamide] | 0.1 to 1000 nM
18 | O=C(N[C@@H]1C(=O)Nc2c(F)cc(F)cc2[C@@H]2C[C@H]12)c1cn(Cc2ccccc2)nn1 [Example 90B, 1-benzyl-N-((1aS,2S,8bR)-5,7-difluoro-3-oxo-1,1a,2,3,4,8b-hexahydrobenzo[b]cyclopropa[d]azepin-2-yl)-1H-1,2,3-triazole-4-carboxamide] | 0.1 to 1000 nM
19 | O=C(N[C@@H]1C(=O)Nc2c(F)cc(F)cc2[C@@H]2C[C@H]12)c1nnc(Cc2ccccc2)o1 [Example 89B, 5-benzyl-N-((1aS,2S,8bR)-5,7-difluoro-3-oxo-1,1a,2,3,4,8b-hexahydrobenzo[b]cyclopropa[d]azepin-2-yl)-1,3,4-oxadiazole-2-carboxamide] | 0.1 to 1000 nM

same assay, conditions: Homo sapiens, Jurkat, 48 h, read-out: Cell IC50, TNFα 10 ng/mL, 48 h

Row | Structure (SMILES) | IC50
20 | O=C(N[C@H]1CCc2ccccc2-n2ccnc21)c1nnc(Cc2ccccc2)[nH]1 [Example 52, (S)-5-benzyl-N-(5,6-dihydro-4H-benzo[f]imidazo[1,2-a]azepin-4-yl)-4H-1,2,4-triazole-3-carboxamide] | 0.1 to 1000 nM

same assay, conditions: TNFα 10 ng/mL, 48 h; read-out: Cell IC50

Row | Structure (SMILES) | IC50
21 | CN1C(=O)[C@@H](NC(=O)c2nnc(Cc3ccccc3)[nH]2)C[C@H](F)c2ccccc21 (mixture of isomers) [Example 12A, 5-benzyl-N-((3S,5S)-5-fluoro-1-methyl-2-oxo-2,3,4,5-tetrahydro-1H-benzo[b]azepin-3-yl)-4H-1,2,4-triazole-3-carboxamide and 5-benzyl-N-((3R,5R)-5-fluoro-1-methyl-2-oxo-2,3,4,5-tetrahydro-1H-benzo[b]azepin-3-yl)-4H-1,2,4-triazole-3-carboxamide] | 0.1 to 1000 nM
